According to US20260007680A1, “Compounds and Their Use as PDE4 Activators” (Mironid Limited, priority 2022, published 2026):

Legend:
m-IMCD3 cells = assay: Inhibition of PGE2-stimulated in vitro cyst formation in 3D culture of m-IMCD3 cells (Experiment 4); format: cell-based, mouse; conditions: Mus musculus, mIMCD3, 144 h, 10 μM test compound, mean cyst area compared to 100% for (DMSO + PGE2) and 0% for DMSO control, read-out: % Cyst area* after incubation with 10 μM test compound
Procedure: HEK 293 and MDCK cells (Public Health England, Cell Culture Collections) were maintained in Dulbecco's Modified Eagle's Medium (DMEM) supplemented with 10% (v/v) fetal bovine serum (FBS) (Seralab), 2 mM L-glutamine and 100 U/ml penicillin streptomycin cocktail (ThermoFisher); termed complete media. Clonal HEK 293 cell lines were maintained in complete media supplemented with 0.6 mg/mL G418 (Enzo Life Sciences). Mouse inner medullary collecting duct (m-IMCD3) cells [American Type Culture Collection (ATCC)] were maintained in media consisting of DMEM/Hams F-12 50/50 Mix (DMEM F12; Corning) supplemented with penicillin streptomycin cocktail (100 U/ml) and FBS (10% v/v) (DMEM F12-10% FBS).
The mouse Inner Medullary Collecting Duct cell line (m-IMCD3) spontaneously forms cystic spheroids in 3D culture with a Type 1 collagen/Matrigel extracellular matrix. This process can be stimulated with agents which raise intracellular cAMP and is used as an in vitro model for the formation of cystic structures in the kidneys of patients with ADPKD.
Rat Collagen I (Fisher Scientific) is prepared on ice by neutralising with 1 M NaOH and diluting with a 2×volume of DMEM/F12+10% FBS. This is mixed 1:1.1 with ice cold Matrigel (Corning) for coating plates (coating mix), and 1:0.93 with Matrigel for cell plating (plating mix).
The assay is conducted in the wells of a 96-well plate culture dish using a total volume of 130 μL of collagen/Matrigel/DMEM F12-10% FBS suspension in growth media for each matrix plug per individual well. Initially, 30 μL of collagen/Matrigel/DMEM F12-10% FBS (coating mix) is added into the well of a 96 well plate and the collagen is set to a gel by incubating at 37° C. for at least 15 minutes. A second layer of 100 μL collagen/Matrigel suspension (plating mix) containing m-IMCD3 cells (2.75×10^6 m-IMCD3 cells per 96-well plate) is layered over the coating mix and the collagen/Matrigel/cell mix again set to a gel by incubating at 37° C. Cell cultures are maintained at 37° C. in an atmosphere of 5% CO2, 95% air.
Between 18 and 24 h after plating, test compound(s) as DMSO stock solutions [0.1% (v/v) final DMSO concentration] and PGE2 (100 nM final concentration) in DMEM F12-10% FBS are added in quadruplicate wells per condition. Media, together with the test compound and PGE2 are replenished after 2 or 3 days. After 6 days of culture z stack images of the wells are captured using the Nikon Eclipse Ti2-E microscope. Nikon General Analysis software is used to measure the following parameters in each well: the mean cyst area, the number of cysts, and the total cyst area.
PDE4 long form activators inhibited in vitro cyst formation in m-IMCD3 cells. Data are shown in FIG. 2 and Table 4 as mean cyst area (%), compared to 100% for (DMSO+PGE2) and 0% for DMSO control.

PDE4B2 = target: T1, PDE4B2 (Homo sapiens, UniProt Q07343); assay: PDE assay, PDE4B2 short form (Experiment 1); format: biochemical; conditions: 100 μM test compound; mean % increase in counts over basal activity
T1 construct: the full length human PDE4B2 short isoform; made in house; cytosol fraction of cell lysate, prepared as described for PDE4D5
T1 sequence (Q07343 1-564 isoform Q07343-2): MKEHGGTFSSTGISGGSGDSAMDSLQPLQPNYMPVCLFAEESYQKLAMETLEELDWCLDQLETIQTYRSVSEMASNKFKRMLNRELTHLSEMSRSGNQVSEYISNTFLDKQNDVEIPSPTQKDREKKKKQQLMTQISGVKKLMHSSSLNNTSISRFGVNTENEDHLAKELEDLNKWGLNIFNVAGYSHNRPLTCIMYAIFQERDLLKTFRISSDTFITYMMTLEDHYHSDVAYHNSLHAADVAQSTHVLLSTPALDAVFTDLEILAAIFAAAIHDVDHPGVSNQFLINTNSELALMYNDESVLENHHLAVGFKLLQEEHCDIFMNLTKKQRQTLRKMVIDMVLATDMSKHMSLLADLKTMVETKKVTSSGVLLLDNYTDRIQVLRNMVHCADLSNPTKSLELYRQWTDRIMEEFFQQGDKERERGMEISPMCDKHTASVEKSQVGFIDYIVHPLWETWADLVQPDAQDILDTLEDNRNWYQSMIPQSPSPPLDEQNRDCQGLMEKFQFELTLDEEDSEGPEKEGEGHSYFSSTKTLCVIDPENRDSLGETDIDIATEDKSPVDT
Procedure: One suitable method of detecting whether or not a compound is capable of serving as an activator of a PDE4 long form is using a two-step radio-assay procedure described in Experiment 1. In summary, the method involves incubating a PDE4 long form with a test small molecule activator, together with [^3H]-labelled cAMP to assess alterations in the breakdown of cAMP to the 5′-adenosine monophosphate (5′-AMP) product. A sample of the reaction mixture from such an incubation is subsequently treated with snake venom 5′-nucleotidase to allow conversion of the nucleotide [^3H]-labelled 5′-AMP to the uncharged nucleoside [^3H]-labelled adenosine, which can be separated and quantified to assess PDE4 activity and the effect of the test compound (Thompson, W. J. and Appleman, M. M. Biochemistry 10: 311-316, 1971, with some modifications as described in: Marchmont, R. J. and Houslay, M. D. Biochem J. 187: 381-92, 1980).
Experiment 1: Measurement of Modulation of Enzyme Activity by PDE4 Long Form Activators of the Present Invention Using Full-Length Human PDE4 Isoforms; Long Forms PDE4D5, PDE4C3, PDE4B1 and Short Form PDE4B2 • (Marchmont, R. J. and Houslay, M. D. Biochem. J. 187: 381-92, 1980)
Where stable cell lines were generated the clonal isolates were expanded to obtain cell lines that stably expressed the full-length human PDE4 long isoforms and the full length human PDE4B2 short isoform. These were called the HEK-PDE4D5, HEK-PDE4B1 and HEK-PDE4B2 cell lines, respectively.
PDE assays were performed in thin walled V-bottomed 96-well plates. The assays were performed at a final concentration of 10 mM Tris/5 mM MgCl2 plus PDE4D5 cell lysate cytosol fraction, containing over-expressed PDE4D5, with and without test compound. The lysate/compound mix were incubated together for 15 min at room temperature on an orbital shaker prior to addition of [^3H] cAMP (final concentration 1 μM [^3H] cAMP; Perkin Elmer) to a final volume of 50 μL per reaction. The reactions were then incubated for 10 minutes at 30° C., terminated by heating for 2 min at 95° C. and allowed to cool. Snake venom (12.5 μL of 1 mg/mL; Crotalus atrox, Sigma) was then added and the plates were agitated and incubated for a further 15 minutes at 30° C. Dowex ion exchange resin (Sigma, chloride form, 200-400 mesh; 200 μL; prepared as a 1:1 Dowex:water stock, thoroughly re-suspended and diluted 2:1 with ethanol) was then added to each well and the plates incubated for 15 min at room temperature on an orbital shaker ensuring sufficient agitation for resin suspension (550 RPM). The reaction mixture was then transferred to a 96 well filter plate (Millipore; 0.45 μm pore size) and filtered into a receiving 96-well plate to remove the dowex suspension. 30 μL of the filtered solution was then transferred to the wells of an Opti-plate (Perkin Elmer) 96 well assay plate and 120 μL of Microscint 40 scintillation fluid was added. The plate was then placed on an orbital shaker for 10 min at high speed (900 rpm) to mix the sample with scintillation fluid prior to quantitation using a plate based scintillation counter (Top-Count).
The % increase in counts in the presence of test compound at a particular concentration indicates the % increase in enzyme activity at that concentration.

| activation at 100 µM (PDE4B2) [%] | Compound | activity at 10 µM (m-IMCD3 cells) [%] |
| --- | --- | --- |
| -39 | Cc1ccc(-c2nc3cc(C(=O)N[C@H]4CCOc5ccccc54)ccc3[nH]2)cn1 [Example 2, (S)—N-(chroman-4-yl)-2-(6-methylpyridin-3-yl)-1H-benzo[d]imidazole-5-carboxamide] | 17 |
| -6 | Cc1cncc(-c2nc3cc(C(=O)N[C@H]4CCOc5ccccc54)ccc3[nH]2)c1 [Example 4, (S)—N-(chroman-4-yl)-2-(5-methylpyridin-3-yl)-1H-benzo[d]imidazole-5-carboxamide] | 18 |
| 5 | Cc1cncc(-c2nc3ccc(C(=O)N[C@H]4CCOc5ccccc54)cc3n2C)c1 [Example 28, (S)—N-(chroman-4-yl)-1-methyl-2-(5-methylpyridin-3-yl)-1H-benzo[d]imidazole-6-carboxamide] | 8 |
| -8 | Cc1ccncc1-c1nc2cc(C(=O)N[C@H]3CCOc4ccccc43)ccn2n1 [Example 53, (S)—N-(chroman-4-yl)-2-(4-methylpyridin-3-yl)-[1,2,4]triazolo[1,5-a]pyridine-7-carboxamide] | 20 |
